Results reported in patent publication US20240025886A1, “INHIBITORS OF IGF2BP1-RNA BINDING” (YISSUM RESEARCH DEVELOPMENT COMPANY OF THE HEBREW …, priority 2020, published 2024).

Columns and labels:
cMyc mRNA = cMyc mRNA levels in different cell lines; type: cell-based
Method: (§1) Primers were calibrated for several Igf2bp1 RNA targets (Table 3): […]
(§2) Cells were grown for 12 hours in 12 well plates prior to incubation with the compound at different concentrations for an additional 12 or 24 hours. Total RNA was then extracted using EZ-RNA total RNA isolation kit (Biological Industries) and cDNA prepared from the RNA using the First Strand cDNA Synthesis kit (Quanta bio). Real time PCR was performed with Fast SYBR Green Master Mix (Thermo Fisher Scientific), and cDNA expression analyzed with the Bio-Rad CFX Manager 3.1.

Igf2bp1 RRM12 di-domain = molecular target: T1, Igf2bp1 RRM12 di-domain (Homo sapiens, UniProt Q9NZI8); assay: MST binding to Igf2bp1 di-domain RRM12
T1 construct: RRM12 (M1-P188); 6xHis (N, cleaved yes); made in house; host or cells: E. coli BL21(DE3)
Method: (§3) Recombinant full-length Igf2bp1 protein was labelled with RED-tris-NTA dye using a Monolith NT His-Tag Labelling Kit (NanoTemper) while RRM12, KH12 and KH34 di-domain peptides were labelled using the Protein Labeling Kit RED NHS 2nd generation (NanoTemper). Labelled proteins were spun at 15,000 g for 5 min to eliminate aggregates. All samples were 2× labelled protein mix of Igf2bp1 (200 nM) in PBST and were combined (1:1) with serial dilutions of compound or Kras6 RNA in binding buffer (10 mMTris pH=7.5, 100 mM NaCl, 0.1 mM EDTA, 0.06% IPEGAL, 0.02 μg/μL tRNA, 2 mM DTT, 0.1 μg/μL heparin) in final volume of 20 μL, room temperature for 15 min. Samples were then loaded into standard capillaries (NanoTemper) and read in the Monolith NT.115 scanner (NanoTemper) using the red filter with reading conditions of 95% LED power and 40% MST power, 5 sec fluorescence before, 30 sec MST on, 5 sec fluorescence after and 25 sec delay between samples. Results were analyzed using the MO Control software (NanoTemper) for curve fitting to KD.

ES2 cells [1] = assay: Cell proliferation assay (Incucyte), ES2 cells; type: cell-based, human; set-up: dose or concentration left out as unconfirmed; conditions: ES2, up
Method: ES2, H1299 and HEK293 cells were seeded in a 96 well plate (5×10^3 cells per well) for 24 hours before adding the compound at increasing concentrations. After an additional 24 hours, the plate was incubated in an IncuCyte® S3 Live-Cell Analysis System (Essen BioScience). The wells were filmed for 72 hours, and then analyzed for proliferation rate Using IncuCyte® S3 Live-Cell Analysis System (Essen BioScience)

ES2 cells [2] = assay: Wound healing (cell migration) assay, ES2 cells; type: cell-based, human
Method: (§4) Cells were seeded in 96 IncuCyte® ImageLock plates (20×10^3 cells per well) for 24 hours, to a near confluency of 95%, before the addition of increasing concentrations of compound. After a further 24 hours, wells were scratched using the IncuCyte® 96-well WoundMaker Tool, and the cells cultured for an additional 48 hours using the IncuCyte® S3 Live-Cell Analysis System (Essen BioScience). The plate was imaged at increments of 120 minutes for a period of 48 hours, and then analyzed for relative wound healing.

Igf2bp1 KH34 di-domain = molecular target: T2, Igf2bp1 KH34 di-domain (Homo sapiens, UniProt Q9NZI8); assay: MST binding to Igf2bp1 di-domain KH34
T2 construct: KH34 (P387-A574); 6xHis (N, cleaved yes); made in house; host or cells: E. coli BL21(DE3)
Method: as §3

[3] = tested on: Kras protein in H1299 cells; assay: Western blot of Kras protein in H1299 cells; type: cell-based, human; conditions: H1299, 10 and 20 μM 7773, 48 hours
Method: Western blots were performed as previously described. For fluorescent westerns, cell lysates were prepared with phosphatase inhibitors (β-Glycerophosphate and Sodium orthovanadate) and a protease inhibitor (cOmplete™, Mini Protease Inhibitor Cocktail, Roche 04693124001), membranes were read using a Li-Core Odyssey laser scanner, and results analyzed using Image Studio Lite software.
The following primary antibodies were used: mouse anti-total ERK (p44/42 MAPK (Erk1/2) L34F12 Cell Signaling 4696s), mouse anti-Kras (CPTC-KRAS4B-2, DSHB) rabbit anti-dpERK, (p44/42 MAPK, Cell Signaling 4370), rabbit anti-alpha/beta tubulin (Cell Signaling 2148), goat anti-rabbit IgG-HRP (Jackson), goat anti-mouse IgG-HRP (Jackson). Secondary antibodies for fluorescent westerns: donkey anti-mouse 800 (Rockland 610-732-124), goat anti-rabbit 680 (Molecular Probes A21076).

[4] = tested on: Igf2bp1 split-luciferase reporter in RKO cells; assay: Split-luciferase assay of Igf2bp1 dimerization in RKO cells; type: cell-based; set-up: dose or concentration left out as unconfirmed
Method: Vectors expressing different fragments of split luciferase reporters with flexible linker were procured from Addgene (catalog #58786, 58787, 58788 and 58789). The vectors were digested with EcoRI and XhoI. EcoRI and XhoI restriction enzyme sites were added to 5′ and 3′ ends of the coding region of IGF2BP1 respectively using PCR. The inventors constructed four split luciferase reporter vectors by cloning IGF2BP1 in different orientation with the luciferase fragments (FIG. 8B). Primers used for the amplification of IGF2BP1 were: […]
The RKO cells were seeded in DMEM with 10% calf serum 24 hrs prior to the transfection. Transfection was done using Lipofectamine 2000 with reporter plasmids and Renilla-luciferase expressing vector (as internal control). After 24 hrs, cells were lysed using passive lysis buffer (Promega catalog #E1941). The lysates were cleared by centrifugation and its […] volume was mixed with […] of luciferase substrate solution for luminescence recording which was followed by addition of […] of Stop-glo solution (Promega catalog #E1910) with an additional luminescence reading. Both readings were detected by using GloMax 20/20 Luminometer (Promega), and the final value for each sample was the ratio of their two respective readings. […]

ES2 cells [5] = assay: Real-time PCR of steady state RNA levels in ES2 cells; type: cell-based, human; set-up: dose or concentration left out as unconfirmed
Method: as §1, §2

[6] = tested on: LKR-M cells transfected with full length human Igf2bp1-GFP; assay: Wound healing assay, LKR-M cells expressing human Igf2bp1-GFP; type: cell-based, mouse; set-up: dose or concentration left out as unconfirmed; conditions: 7773 vs DMSO
Method: as §4

[7] = tested on: control luciferase in RKO cells; assay: Control (wild type) luciferase in RKO cells; type: cell-based; conditions: 50 mM 7773
Method: The RKO cells were seeded in DMEM with 10% calf serum 24 hrs prior to the transfection. Transfection was done using Lipofectamine 2000 with reporter plasmids and Renilla-luciferase expressing vector (as internal control). After 24 hrs, cells were lysed using passive lysis buffer (Promega catalog #E1941). The lysates were cleared by centrifugation and its […] volume was mixed with […] of luciferase substrate solution for luminescence recording which was followed by addition of […] of Stop-glo solution (Promega catalog #E1910) with an additional luminescence reading. Both readings were detected by using GloMax 20/20 Luminometer (Promega), and the final value for each sample was the ratio of their two respective readings. To test the effects of 7773, transfected cells with reporter plasmids were washed with PBS after 24 hrs of transfection and incubated with medium containing 7773.

H1299 cells = assay: Real-time PCR of steady state RNA levels in H1299 cells; type: cell-based, human
Method: as §1, §2

T2 sequence (Q9NZI8 387-574): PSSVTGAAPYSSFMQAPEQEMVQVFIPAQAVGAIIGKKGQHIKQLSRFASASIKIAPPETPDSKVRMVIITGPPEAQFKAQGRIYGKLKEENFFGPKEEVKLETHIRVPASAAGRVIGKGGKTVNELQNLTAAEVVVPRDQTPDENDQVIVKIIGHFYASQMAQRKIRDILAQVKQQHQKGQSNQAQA
T1 sequence (Q9NZI8 1-188): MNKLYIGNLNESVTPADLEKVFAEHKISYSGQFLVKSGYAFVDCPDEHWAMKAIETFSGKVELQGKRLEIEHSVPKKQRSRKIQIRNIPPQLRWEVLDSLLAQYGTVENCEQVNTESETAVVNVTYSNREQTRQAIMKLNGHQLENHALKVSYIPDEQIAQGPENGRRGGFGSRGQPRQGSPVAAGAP

Kd (Igf2bp1 RRM12 di-domain): 1.5 µM | Kd (Igf2bp1 KH34 di-domain): 7.2 µM
Compound: O=C(c1ccc(Cn2cnnn2)cc1)N1CCCC(Nc2ccc3c(c2)OCO3)C1 (stereo not shown) [Compound 7773]
Reduction of cMyc mRNA levels (cMyc mRNA): 50-60% | Cell proliferation (ES2 cells [1]): remarkably unaffected | Inhibition of wound healing (ES2 cells [2]; ES2, 5 mM 7773): discernible inhibition | Inhibition of wound healing (ES2 cells [2]; ES2, 20 mM 7773): strongly inhibited | Kras protein expression [3]: dose-dependent reduction | Split-luciferase luminescence [4]: significantly reduced luminescence | Steady state levels of CD44, Kras, cMyc and SRF RNA (ES2 cells [5]; ES2, 7773, 12 hours): reduced | Steady state level of CD44 RNA (ES2 cells [5]; ES2, 7773, 12 hours, appeared to recover after 24 hours): strongly reduced | Steady state levels of control RNAs (not targets of Igf2bp1) (ES2 cells [5]; ES2, 7773, 24 hours): not significantly affected | Inhibition of Igf2bp1-GFP enhanced wound healing [6]: significantly inhibited | Activity of wild type luciferase [7]: did not affect | Steady state level of Kras mRNA (H1299 cells; H1299, 20 mM 7773, 12 hours): already reduced | Steady state levels of CD44, Kras, cMyc and SRF RNA (H1299 cells; H1299, 20 mM 7773, 24 hours): significantly reduced | Steady state levels of control RNAs (not targets of Igf2bp1) (H1299 cells; H1299, 20 mM 7773, 24 hours): not significantly affected
